Measurements: ChEMBL document CHEMBL1212909, “Lactones and quinones from the tubers of Sinningia aggregata” (2010)

How the values were obtained:
Candida dubliniensis [1] = test: Antifungal activity against Candida dubliniensis ATCC 778157 by broth microdilution method
Candida dubliniensis [2] = test: Antifungal activity against Candida dubliniensis ATCC 777 by broth microdilution method

| MIC (Candida dubliniensis [1]) | MIC (Candida dubliniensis [2]) | Compound |
| --- | --- | --- |
| > 100 µg/mL | > 100 µg/mL | COc1ccc2c(c1)C(=O)c1cc(C)ccc1C2=O |
| > 100 µg/mL | > 100 µg/mL | Cc1ccc2c(c1)C(=O)c1cc(O)ccc1C2=O |
| > 100 µg/mL | > 100 µg/mL | Cc1ccc2c(c1)C(=O)c1ccccc1C2=O [TECTOQUINONE] |
